Test results published in ChEMBL document CHEMBL1124261 (J Med Chem, 1988).

Experiments:
Mus musculus [1] = species on record: Mus musculus; assay: (§1) Tested for inhibition against purified Folyl-polyglutamate synthase from mouse liver; conditions: concentration not given here
[2] = Inhibitory constant against purified Folyl-polyglutamate synthase from mouse liver; assay type: functional
L1210 [3] = assay: Range for the survival of mice infected with L1210 leukemia after an intraperitoneal dose of 12.5 mg/kg for 9 days; assay type: functional, Mus musculus
L1210 [4] = assay: Range for the survival of mice infected with L1210 leukemia after an intraperitoneal dose of 25 mg/kg for 9 days; assay type: functional, Mus musculus
L1210 [5] = assay: Range for the survival of mice infected with L1210 leukemia after an intraperitoneal dose of 50 mg/kg for 9 days; assay type: functional, Mus musculus
L1210 [6] = assay: Range for the survival of mice infected with L1210 leukemia after an intraperitoneal dose of 6.25 mg/kg for 9 days; assay type: functional, Mus musculus
L1210 ( R81) = assay: Tested for cell-growth inhibition against mouse leukemic L1210/R81 cells; assay type: functional, cell-based
L1210 [7] = assay: Increase in life span of mice infected with L1210 leukemia after an intraperitoneal dose of 12.5 mg/kg for 9 days; assay type: functional; conditions: Mus musculus, L1210, ip, 216 h
L1210 [8] = assay: Increase in life span of mice infected with L1210 leukemia after an intraperitoneal dose of 25 mg/kg for 9 days; assay type: functional; conditions: Mus musculus, L1210, ip, 216 h
L1210 [9] = assay: Increase in life span of mice infected with L1210 leukemia after an intraperitoneal dose of 50 mg/kg for 9 days; assay type: functional; conditions: Mus musculus, L1210, ip, 216 h
L1210 [10] = assay: Increase in life span of mice infected with L1210 leukemia after an intraperitoneal dose of 6.25 mg/kg for 9 days; assay type: functional; conditions: Mus musculus, L1210, ip, 216 h
L1210 [11] = assay: Mean change in weight of mice infected with L1210 leukemia after 7 days after an intraperitoneal dose of 12.5 mg/kg; assay type: functional, Mus musculus
L1210 [12] = assay: Mean change in weight of mice infected with L1210 leukemia after 7 days after an intraperitoneal dose of 25 mg/kg; assay type: functional, Mus musculus
L1210 [13] = assay: Mean change in weight of mice infected with L1210 leukemia after 7 days after an intraperitoneal dose of 50 mg/kg; assay type: functional, Mus musculus
L1210 [14] = assay: Mean change in weight of mice infected with L1210 leukemia after 7 days after an intraperitoneal dose of 6.25 mg/kg; assay type: functional, Mus musculus
L1210 [15] = assay: Tested for cell-growth inhibition against mouse leukemic L1210 cells; assay type: functional, cell-based
L1210 [16] = assay: Mean survival of mice infected with L1210 leukemia after an intraperitoneal dose of 50 mg/kg for 9 days; assay type: functional, Mus musculus
L1210 [17] = assay: Mean survival of mice infected with L1210 leukemia after an intraperitoneal dose of 6.25 mg/kg for 9 days; assay type: functional, Mus musculus
L1210 [18] = assay: Mean survival of mice infected with L1210 leukemia after an intraperitoneal dose of 12.5 mg/kg for 9 days; assay type: functional, Mus musculus
L1210 [19] = assay: Mean survival of mice infected with L1210 leukemia after an intraperitoneal dose of 25 mg/kg for 9 days; assay type: functional, Mus musculus
Dihydrofolate reductase = target: T1, Dihydrofolate reductase (Mus musculus, UniProt P00375); assay: biochemical
T1 sequence (P00375 whole entry): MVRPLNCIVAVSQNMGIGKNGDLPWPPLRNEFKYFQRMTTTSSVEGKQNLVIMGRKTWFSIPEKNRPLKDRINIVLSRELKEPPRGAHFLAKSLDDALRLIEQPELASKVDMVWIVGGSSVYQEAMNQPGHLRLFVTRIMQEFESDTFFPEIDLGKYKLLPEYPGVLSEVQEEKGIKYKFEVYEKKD
Description: Tested for inhibition against purified Dihydrofolate reductase from L1210 murine leukemia cells

L1210 [20] = assay: Range for the survival of mice infected with L1210 leukemia after an intraperitoneal dose of 12.5 mg/kg for 9 days; Range is 10-15; assay type: functional, Mus musculus
L1210 [21] = assay: Range for the survival of mice infected with L1210 leukemia after an intraperitoneal dose of 6.25 mg/kg for 9 days; Range is 10-13; assay type: functional, Mus musculus
Mus musculus [22] = species on record: Mus musculus; assay: as §1; assay type: functional; conditions: dose or concentration not given here
L1210 [23] = assay: Range for the survival of mice infected with L1210 leukemia after an intraperitoneal dose of 50 mg/kg for 9 days; Range is 8-16
L1210 [24] = assay: Increase in life span of mice infected with L1210 leukemia after an intraperitoneal dose of 4 mg/kg for 9 days; assay type: functional; conditions: Mus musculus, L1210, ip, 216 h
L1210 [25] = assay: Mean change in weight of mice infected with L1210 leukemia after 7 days after an intraperitoneal dose of 4 mg/kg; assay type: functional, Mus musculus
L1210 [26] = assay: Mean survival of mice infected with L1210 leukemia after an intraperitoneal dose of 4 mg/kg for 9 days; assay type: functional, Mus musculus
L1210 [27] = assay: Range for the survival of mice infected with L1210 leukemia after an intraperitoneal dose of 4 mg/kg for 9 days; assay type: functional, Mus musculus
CCRF-CEM [28] = assay: Tested for cell-growth inhibition against human leukemic lymphoblast CEM cells; assay type: functional, cell-based
CCRF-CEM [29] = assay: Tested for cell-growth inhibition against human leukemic lymphoblast CEM/MTX cells; assay type: functional, cell-based
L1210 [30] = assay: Mean change in weight of mice infected with L1210 leukemia after 7 days after an intraperitoneal dose of 80 mg/kg; assay type: functional, Mus musculus
L1210 [31] = assay: Range for the survival of mice infected with L1210 leukemia after an intraperitoneal dose of 20 mg/kg for 9 days; Range is 19-22; assay type: functional, Mus musculus
L1210 [32] = assay: Range for the survival of mice infected with L1210 leukemia after an intraperitoneal dose of 40 mg/kg for 9 days; Range is 12-25; assay type: functional, Mus musculus
L1210 [33] = assay: Increase in life span of mice infected with L1210 leukemia after an intraperitoneal dose of 20 mg/kg for 9 days; assay type: functional; conditions: Mus musculus, L1210, ip, 216 h
L1210 [34] = assay: Increase in life span of mice infected with L1210 leukemia after an intraperitoneal dose of 40 mg/kg for 9 days; assay type: functional; conditions: Mus musculus, L1210, ip, 216 h
L1210 [35] = assay: Increase in life span of mice infected with L1210 leukemia after an intraperitoneal dose of 60 mg/kg for 9 days; assay type: functional; conditions: Mus musculus, L1210, ip, 216 h
L1210 [36] = assay: Increase in life span of mice infected with L1210 leukemia after an intraperitoneal dose of 80 mg/kg for 9 days; assay type: functional; conditions: Mus musculus, L1210, ip, 216 h
L1210 [37] = assay: Mean change in weight of mice infected with L1210 leukemia after 7 days after an intraperitoneal dose of 20 mg/kg; assay type: functional, Mus musculus
L1210 [38] = assay: Mean change in weight of mice infected with L1210 leukemia after 7 days after an intraperitoneal dose of 40 mg/kg; assay type: functional, Mus musculus
L1210 [39] = assay: Mean change in weight of mice infected with L1210 leukemia after 7 days after an intraperitoneal dose of 60 mg/kg; assay type: functional, Mus musculus
L1210 [40] = assay: Mean survival of mice infected with L1210 leukemia after an intraperitoneal dose of 40 mg/kg for 9 days; assay type: functional, Mus musculus
L1210 [41] = assay: Mean survival of mice infected with L1210 leukemia after an intraperitoneal dose of 60 mg/kg for 9 days; assay type: functional, Mus musculus
L1210 [42] = assay: Range for the survival of mice infected with L1210 leukemia after an intraperitoneal dose of 60 mg/kg for 9 days; Range is 9-24; assay type: functional, Mus musculus
L1210 [43] = assay: Range for the survival of mice infected with L1210 leukemia after an intraperitoneal dose of 80 mg/kg for 9 days; Range is 9-11; assay type: functional, Mus musculus
L1210 [44] = assay: Mean survival of mice infected with L1210 leukemia after an intraperitoneal dose of 80 mg/kg for 9 days; assay type: functional, Mus musculus
L1210 [45] = assay: Mean survival of mice infected with L1210 leukemia after an intraperitoneal dose of 20 mg/kg for 9 days; assay type: functional, Mus musculus

SMILES	inhibition (Mus musculus [1])	Ki [2]	Range (L1210 [4])	IC50 (L1210 ( R81))	ILS at 12.5 mg/kg (L1210 [7])	ILS at 25 mg/kg (L1210 [8])	ILS at 50 mg/kg (L1210 [9])	ILS at 6.25 mg/kg (L1210 [10])	Weight change (L1210 [11])	Weight change (L1210 [12])	Weight change (L1210 [13])	Weight change (L1210 [14])	IC50 (L1210 [15])	Survival (L1210 [16])	Survival (L1210 [17])	Survival (L1210 [18])	Survival (L1210 [19])	IC50 (Dihydrofolate reductase)	also measured
Nc1nc(N)c2nc(CNc3ccc(C(=O)NC(CCCCCCCCCCC(=O)O)C(=O)O)cc3)cnc2n1 (stereo not drawn)	74%	62000 nM	16 days	215000 nM	57%	11%	18%	45%	10%	-3%	4%	10%	1.1 nM	10.4 days	12.8 days	13.8 days	9.6 days	67 nM	Range (L1210 [3]): 16 days; Range (L1210 [5]): 15 days; Range (L1210 [6]): 13 days
Nc1nc(N)c2nc(CNc3ccc(C(=O)NC(CCCCCCC(=O)O)C(=O)O)cc3)cnc2n1 (stereo not drawn)		170000 nM	16 days	> 218000 nM	61%	34%	20%	36%	9%	5%	7%	9%	20 nM	10.6 days	12 days	14.2 days	11.8 days	54 nM	Range (L1210 [20]): 10 days; Range (L1210 [21]): 10 days; inhibition (Mus musculus [22]): 50%; Range (L1210 [23]): 8 days
CN(Cc1cnc2nc(N)nc(N)c2n1)c1ccc(C(=O)N[C@@H](CCC(=O)O)C(=O)O)cc1 [METHOTREXATE]																			ILS at 4 mg/kg (L1210 [24]): 95%; Weight change (L1210 [25]): 8%; Survival (L1210 [26]): 17.2 days; Range (L1210 [27]): 23 days
CN(Cc1cnc2nc(N)nc(N)c2n1)c1ccc(C(=O)NC(CCCCCCCCCCC(=O)O)C(=O)O)cc1 (stereo not drawn)	59%			56000 nM									26 nM					26 nM	IC50 (CCRF-CEM [28]): 640 nM; IC50 (CCRF-CEM [29]): 10000 nM; Weight change (L1210 [30]): 4%; Range (L1210 [31]): 19 days; Range (L1210 [32]): 12 days; ILS at 20 mg/kg (L1210 [33]): 137%; ILS at 40 mg/kg (L1210 [34]): 116%; ILS at 60 mg/kg (L1210 [35]): 97%; ILS at 80 mg/kg (L1210 [36]): 14%; Weight change (L1210 [37]): 3%; Weight change (L1210 [38]): 3%; Weight change (L1210 [39]): 2%; Survival (L1210 [40]): 19 days; Survival (L1210 [41]): 17.3 days; Range (L1210 [42]): 9 days; Range (L1210 [43]): 9 days; Survival (L1210 [44]): 10 days; Survival (L1210 [45]): 20.4 days
